Test results from patent publication US20250340846A1, “PATIENT-DERIVED CELL-CONTAINING DROPLETS ENABLE CLINICAL PRECISION ONCOLOGY” (Xilis, Inc., priority 2022, published 2025).

Legend:
[1] = tested on: MOS from metastatic rectal cancer biopsy; assay: High-throughput drug screen on patient-derived MOS, CellTiter-Glo viability; assay type: cell-based, human; conditions: 1 μM, 72 hours, 30 tumor cells per MOS
Method: (§1) Drug High-Throughput Screening: Automated liquid handling was provided by the Echo Acoustic Dispenser (Labcyte) for drug administration or Well mate (Thermo Fisher) for cell plating, and assays were performed using a Clariosean plate reader (BMG Labtech). Immediately prior to cell plating, 384 well plates were stamped with 119 FDA-approved drug compounds at a final concentration of 1 μM. The compound library (Approved Oncology Set VI) was provided by the NCI Developmental Therapeutics Program (https://dtp.cancer.gov/). MOS were plated in these drug pre-coated plates at 100 MOS/well with each MOS containing 30 cells/droplet. Cell viabilities were assessed via CellTiter-Glo Luminescent Cell Viability Assay (Promega, USA) 72 hours after cell plating. Percent cytotoxicity was quantified using the following formula: 100*[1-(average CellTiterGlo^drug/average CellTiterGlo^control)].
Since clinical treatment decisions are often made within 10-14 days of diagnosis, an ideal diagnostic assay would give results within 14 days and use minimal tissue (e.g., core biopsies) to predict clinical outcome. In an initial study, a biopsy was obtained from a patient presenting with metastatic rectal cancer, and MOS (30 tumor cells per MOS) were established within 8 days of biopsy. […]

[2] = tested on: metastatic CRC patient-derived MOS; assay: Oxaliplatin drug testing of MOS from CRC core biopsies (Cell Titer Glo); assay type: cell-based, human; conditions: 1 μM and 10 μM, cut-off 50% killing
Method: as §1
A prospective clinical study was then designed and conducted. Core biopsies (18-gauge) were obtained from seven additional patients presenting with metastatic CRC, MOS were generated, and drug testing was performed (FIGS. 1H and 1I). MOS (30 tumor cells per MOS) were generated and responses to oxaliplatin were tested within 13 days (9.9 days on average) from time of biopsy for all eight biopsy samples, with a success rate of 100% (8/8) (TABLE 2). Given the limited tissue volume, dosages of 1 μM and 10 μM were selected based on studies disclosed elsewhere (Vlachogiannis et al., Science 359, 920-926, 2018, Ooft et al., Science Translational Med 11, 2019; Ganesh et al., Nat Med 25, 1607-1614, 2019; and Yao et al., Trends Immunol 41, 652-664, 2020). The same cut-off as measured via Cell Titer Glo was used. Among the eight patients, four had oxaliplatin-sensitive MOS and four had oxaliplatin-resistant MOS (FIG. 1J).

metastatic CRC = assay: Clinical outcome of patients on oxaliplatin-based therapy (CT scan, time on treatment); assay type: in vivo, human
Text: All eight patients received oxaliplatin-based therapy per usual treatment guidelines. Patient outcomes were subsequently evaluated by CT scan before and after oxaliplatin treatment (FIGS. 2B-2H), and time-on-treatment was compared to MOS oxaliplatin sensitivity.

[3] = tested on: CRC MOS lines resistant to oxaliplatin; assay: Caspase 3/7 fluorescence imaging of oxaliplatin-treated CRC MOS; assay type: cell-based, human; conditions: two oxaliplatin-resistant CRC MOS lines (CRC1282, CRC1297), 20 cells per MOS
Method: Cell death for each MOS was measured by imaging the Caspase 3/7 fluorescence signal and normalizing it by the cell surface area inside each MOS.

[4] = tested on: MOS generated from NSCLC patient samples; assay: IO assay, Incucyte Annexin V, MOS with tumor-resident immune cells; assay type: cell-based, human; conditions: 10 μg/mL, day 4 MOS, 30 tumor cells per MOS
Method: (§2) IO assay and Incucyte live cell imaging: MOS generated from primary tumor tissue were plated into 96-well plates with a density of 30-50 MOS per well supplied with culture medium without Y compound. Day 3 or day 4 MOS were treated with ESK1*, DP47 or Nivolumab for at least 3 days and imaged in Incucyte during the treatment. When performing immune cell potency assay, pre-activated PBMCs or matched TILs were stained with Cytolight Rapid red dye following manufacturer instructions. Briefly, Cytolight Rapid Red dye in one vial was diluted with 20 μl DMSO and further diluted 10-fold in PBS. PBMC or TILs were incubated at 37° C. with 5 μl diluted Cytolight Red dye (500X) in PBS for 25 minutes. After one wash with PBS, PBMC or TILs were counted and resuspended into wells containing MOS and culture medium at an effector: target ratio of 5:1 or 10:1. Annexin V green dye, Caspase 3/7 green dye, or Cytotox green dye was added into each well following manufacturer instruction. Plates were loaded into Incucyte S3 and images were taken every 2 hours for 4-5 days.
(§3) MOS generated from NSCLC patient samples at a density of 30 tumor cells per MOS formed tumorsphere-like structures in the presence of tumor-resident immune cells. MOS (day 4) were then treated with anti-PD1 therapy nivolumab at 10 μg/mL and Annexin V was used to evaluate cell apoptosis. […]

[5] = tested on: MOS derived from a kidney cancer patient; assay: IO assay, Incucyte Annexin V, kidney tumor MOS; assay type: cell-based, human; conditions: nivolumab alone, day 3 MOS
Method: as §2, §3

lung tumor MOS = assay: IO assay with immunotherapy and MHC block, matched TILs; assay type: cell-based, human
Method: IO assay with immunotherapy and MHC block: Lung tumor MOS were incubated with anti-MHC I/II antibodies (W6/32; Tu39, Cat #361702, Biolegend) at a concentration of 20 μg/mL for 45 minutes at 37° C. before seeding into a 96-well plate at a density of 30-50 MOS per well supplied with lung tumor culture medium without Y-27632. Non-MHC-blocked MOS were used as controls. Matched TILs were added to each well at a 5:1 effector: target ratio. Nivolumab was added to wells at a working concentration of 10 μg/mL. The CD2/CD3/CD28 T cell activator reagent was added at a working concentration of 25 μl/mL. Annexin V was added into each well following the manufacturer's instructions.
Adjunctive therapies were explored by first combining PD-1 blockade (nivolumab) with autologous TILs against matched lung tumor MOS. […] TCB were then combined with autologous TILs or allogeneic PBMCs to treat lung cancer MOS (20 cells per MOS) expressing HLA-A2. ESK1* enhanced both TIL- and PBMC-induced tumor cell death compared to DP47 (FIGS. 11I, 11J, 12J, and 12K). Annexin V signals were higher in MOS treated with ESK1* vs. DP47 in all seven lung cancer samples (FIG. 11K). […] Heterogeneity in drug response between MOS from the same patient was observed and quantified (FIGS. 12K and 12L).

**Q.** `CCc1c2c(nc3ccc(OC(=O)N4CCC(N5CCCCC5)CC4)cc13)-c1cc3c(c(=O)n1C2)COC(=O)[C@]3(O)CC` [irinotecan] was tested. Which “% killing” value [1] did it give?
**A.** < 50%

**Q.** With `O=C1[O][Pt]2([NH][C@@H]3CCCC[C@H]3[NH]2)[O]C1=O` [oxaliplatin] as the compound, how does the “% killing” value [1] read?
**A.** > 50%

**Q.** What about the “MOS Prediction” value ([2]; patient CRC-MOS-001) of the same compound?
**A.** Sensitive

**Q.** And the “MOS Prediction” value ([2]; patient CRC-MOS-002)?
**A.** Resistance

**Q.** And the “MOS Prediction” value ([2]; patient CRC-MOS-003)?
**A.** Sensitive

**Q.** What about the “MOS Prediction” value ([2]; patient CRC-MOS-004) of the same compound?
**A.** Resistance

**Q.** And the “MOS Prediction” value ([2]; patient CRC-MOS-005)?
**A.** Sensitive

**Q.** What about the “MOS Prediction” value ([2]; patient CRC-MOS-006) of the same compound?
**A.** Resistance

**Q.** What about the “MOS Prediction” value ([2]; patient CRC-MOS-007) of the same compound?
**A.** Sensitive

**Q.** What about the “MOS Prediction” value ([2]; patient CRC-MOS-008) of the same compound?
**A.** Resistance

**Q.** And the “patient tumor response to oxaliplatin-based therapy” value (metastatic CRC; metastatic rectal cancer patient, 6 months later)?
**A.** still responded

**Q.** And the “Clinical Outcome” value (metastatic CRC; patient CRC-MOS-001, oxaliplatin-based therapy)?
**A.** Response

**Q.** What about the “Response Time” value (metastatic CRC; patient CRC-MOS-001, time on oxaliplatin-based treatment) of the same compound?
**A.** 46 wks

**Q.** And the “Clinical Outcome” value (metastatic CRC; patient CRC-MOS-002, oxaliplatin-based therapy)?
**A.** Response

**Q.** What about the “Response Time” value (metastatic CRC; patient CRC-MOS-002, time on oxaliplatin-based treatment) of the same compound?
**A.** 28 wks

**Q.** What about the “Clinical Outcome” value (metastatic CRC; patient CRC-MOS-003, oxaliplatin-based therapy) of the same compound?
**A.** Response

**Q.** What about the “Response Time” value (metastatic CRC; patient CRC-MOS-003, time on oxaliplatin-based treatment) of the same compound?
**A.** 38 wks

**Q.** What about the “Clinical Outcome” value (metastatic CRC; patient CRC-MOS-004, oxaliplatin-based therapy) of the same compound?
**A.** No Response

**Q.** And the “Response Time” value (metastatic CRC; patient CRC-MOS-004, time on oxaliplatin-based treatment)?
**A.** 8 wks

**Q.** What about the “Clinical Outcome” value (metastatic CRC; patient CRC-MOS-005, oxaliplatin-based therapy) of the same compound?
**A.** Response

**Q.** And the “Response Time” value (metastatic CRC; patient CRC-MOS-005, time on oxaliplatin-based treatment)?
**A.** 36 wks

**Q.** What about the “Clinical Outcome” value (metastatic CRC; patient CRC-MOS-006, oxaliplatin-based therapy) of the same compound?
**A.** No Response

**Q.** What about the “Response Time” value (metastatic CRC; patient CRC-MOS-006, time on oxaliplatin-based treatment) of the same compound?
**A.** 3 wks

**Q.** And the “Clinical Outcome” value (metastatic CRC; patient CRC-MOS-007, oxaliplatin-based therapy)?
**A.** No Response

**Q.** And the “Response Time” value (metastatic CRC; patient CRC-MOS-007, time on oxaliplatin-based treatment)?
**A.** 24 wks

**Q.** What about the “Clinical Outcome” value (metastatic CRC; patient CRC-MOS-008, oxaliplatin-based therapy) of the same compound?
**A.** No Response

**Q.** And the “Response Time” value (metastatic CRC; patient CRC-MOS-008, time on oxaliplatin-based treatment)?
**A.** 6 wks

**Q.** What about the “cell killing, Caspase 3/7 signal normalized by cell surface area” value [3] of the same compound?
**A.** only the highest dosages induced significant cell killing

**Q.** Which results are given for nivolumab?
**A.** death of tumorspheres within MOS (Annexin V) [4]: induced death in the tumorspheres; killing of tumorspheres inside MOS (Annexin V) [5]: did not enhance killing; TIL-mediated killing inside MOS (Annexin V) (lung tumor MOS; 10 μg/mL with autologous TILs, effector:target 5:1): enhanced TIL-mediated killing; TIL-mediated killing inside MOS (Annexin V) with MHC block (lung tumor MOS; anti-MHC I/II antibodies 20 μg/mL, autologous TILs): abrogated
